Reference: patent publication US20040082664A1, “Derivatives of hydroxyphenyl, a method for preparing thereof and their pharmaceutical composition” (priority 2002, published 2004)

What was measured:
[1] = target: T1, GST-fused lck SH2 domain (Homo sapiens, UniProt P06239); assay: Inhibition of in vitro binding of lck SH2 domain to its cognate pYEEI peptide (BIAcore 2000); details: IC50 class for inhibition of GST-lckSH2 binding to immobilized biotinylated […]pYEEIPI peptide; read-out: BOND DEGREE WITH SH2 OF 1ck
T1 construct: GST (Glutathione transferase)-fused lck SH2 domain
Method: The present inventors investigated the inhibition activity of phenyl derivatives on the interaction of GST (Glutathione transferase)-fused lck SH2 domain and a peptide […]pYEEIPI (comprising the sequence PYEEI, a cognate peptide of Lck SH2) by using a real time sensorgram (BIAcore 2000).
At first, the biotinylated peptide was fixed on the surface of BIAcore analysis apparatus and then GST-lckSH2 protein was injected over the surface of the immobilized peptides. The binding of GST-lck SH2 with the peptide is represented as the resonance units (referred as “RU” hereinafter) and 1,000 RU corresponds to a change in surface concentration of 1 ng/mm^2. The binding of GST-lck with the fixed peptide causes the change of refractory index, leading to the increase of RU. In the mean time, when the binding of GST-lck with the fixed peptide is inhibited, RU decreases. Those results are represented in Table 1.

[2] = test system: IL-2 promoter; assay: IL-2 promoter luciferase reporter assay in anti-CD3 activated Jurkat cells; type: cell-based; details: Homo sapiens, TCR-induced (anti-CD3) IL-2 promoter luciferase, 2 h pre-incubation
Method: In order to confirm whether the compounds of the invention can pass through a cell membrane and inhibit the expression of IL-2 gene leading to T-cell proliferation, the present inventors firstly confirmed T-cell activity by detecting the activity of the luciferase fused on the downstream of IL-2 promoter.
To investigate the activity of IL-2 promoter, Jurkat cells (1×10^6) were transfected with a IL-2 reporter plasmids using Superfect™ (Qiagen Inc.). After 24 hours of transfection, Jurkat cells were pre-incubated with compounds of various concentrations (1 uM-50 uM) for 2 hours and further cultured on 35mm plate pre-coated with 5 ug/ml of anti-CD3 antibody, resulting in T cell activation. The luciferase activity was measured using Berthold luminometer LB953. The IC50 (50% inhibition concentration) of the compounds of the invention on TCR-induced IL-2 promoter activation are shown in Table 2.

[3] = test system: collagen-induced rheumatoid arthritis; assay: Inhibition of collagen-induced rheumatoid arthritis in DBA1/LacJ mice; type: in vivo, mouse; parameters: key: sum of 4 leg scores (0-4 each), max 16; details: maximum 16, mean ± standard deviation
Method: After 2 weeks, booster immunization was carried out with 50 μg C II/IFA. From the 3rd week after primary immunization, compounds of the present invention were injected daily into peritoneal cavities of 6-8 mice per group for 15-20 days.
The vehicle control groups were injected daily with 100 μl of 5% ethanol-olive oil mixture in total 15-20 times. Widely used anti-rheumatic drug, Methotrexate, was dissolved in PBS and then injected to mice at 1 mg/kg/day every other day in total 8-10 times. Meanwhile, the compounds of the invention were dissolved in ethanol and then mulsified in olive oil, in which the final ethanol concentration was adjusted to 5% and the compounds of this invention was 50 mg/kg/day.
From the 3rd week after primary immunization, the extent of edema and the joint swelling was monitored everyday to determine arthritic index. Arthitic index is the sum of the arthritic scores of all 4 legs and, therefore, maximum arthritis index of 16 can be achieved (e.g., [4 (maximum arthritic score)/leg]×[4 legs/mouse]=16 (maximum arthritis index/mouse)). […] was presented by the mean arthritis index±standard deviation of each mouse group.

[4] = 50 mg/kg/day i.p. daily, day 15 after treatment (day 36 after primary immunization), sum of scores of four legs

T1 sequence (P06239 127-224 limits assumed): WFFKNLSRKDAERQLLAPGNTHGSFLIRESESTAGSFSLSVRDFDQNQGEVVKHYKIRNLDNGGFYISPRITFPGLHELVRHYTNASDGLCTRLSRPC

IC50 [1] [µM]	IC50 [2] [µM]	SMILES	Arthritis index [3, 4]	Arthritis index ([3]; Methotrexate 1 mg/kg/day every other day in PBS, day 15 after treatment)
10 to 25	7.8	CC(C)(C)OC(=O)[C@@H](Cc1ccc(O)c(O)c1)NC(=O)/C=C/c1ccc(O)c(O)c1 [Example 6, 3-(3,4-dihydroxy-phenyl)-(R)-2-[3-trans-(3,4-dihydroxy-phenyl)-acryloylamino]propionic acid tert-butyl ester]	5.8 ± 0.9	–
25 to 50	13.9	COC(=O)[C@H](Cc1ccc(O)c(O)c1)NC(=S)/C=C/c1ccc(O)c(O)c1 [Example 22]	6.9 ± 1.2	–
25 to 50	21.4	CC(C)(C)OC(=O)[C@@H](Cc1ccc(O)c(O)c1)NC(=S)/C=C/c1ccc(O)c(O)c1 [Example 20, 3-(3,4-dihydroxy-phenyl)-(R)-2-[3-trans-(3,4-dihydroxy-phenyl)-thioacrylolamino]-propionic acid tert-butyl ester]	6.7 ± 0.4	–
25 to 50	6.7	O=C(O)[C@@H](Cc1ccc(O)c(O)c1)NC(=S)/C=C/c1ccc(O)c(O)c1 [Example 16, 3-(3,4-dihydroxy-phenyl)-(R)-2-[3-trans-(3,4-dihydroxy-phenyl)-thioacryloylamino]-propionic acid]	7.2 ± 1.2	–
10 to 25	8.9	CC(C)OC(=O)[C@@H](Cc1ccc(O)c(O)c1)NC(=S)/C=C/c1ccc(O)c(O)c1 [Example 19, 3-(3,4-dihydroxy-phenyl)-(R)-2-[3-trans-(3,4-dihydroxy-phenyl)-thioacryloylamino]-propionic acid isopropyl ester]	5.1 ± 1.1	–
10 to 25	17.1	COC(=O)[C@@H](Cc1ccc(O)c(O)c1)NC(=S)/C=C/c1ccc(O)c(O)c1 [Example 15, 3-(3,4-dihydroxy-phenyl)-(R)-2-[3-trans-(3,4-dihydroxy-phenyl)-thioacryloylamino]-propionic acid methyl ester]	5.7 ± 0.9	–
< 10	4.8	CCOC(=O)[C@@H](Cc1ccc(O)c(O)c1)NC(=O)/C=C/c1ccc(O)c(O)c1 [Example 3, 3-(3,4-dihydroxy-phenyl)-(R)-2-[3-trans-(3,4-dihydroxy-phenyl)-acryloylamino]-propionic acid ethyl ester]	4.5 ± 0.8	–
10 to 25	5.6	CCCOC(=O)[C@@H](Cc1ccc(O)c(O)c1)NC(=S)/C=C/c1ccc(O)c(O)c1 [Example 18, 3-(3,4-dihydroxy-phenyl)-(R)-2-[3-trans-(3,4-dihydroxy-phenyl)-thioacryloylamino]-propionic acid propyl ester]	5.8 ± 0.3	–
25 to 50	18.7	CC(C)OC(=O)[C@H](Cc1ccc(O)c(O)c1)NC(=S)/C=C/c1ccc(O)c(O)c1 [Example 26, 3-(3,4-dihydroxy-phenyl)-(S)-2-[3-trans-(3,4-dihydroxy-phenyl)-thioacryloylamino]-propionic acid isopropyl ester]	7.0 ± 0.9	–
10 to 25	10.8	CCOC(=O)[C@H](Cc1ccc(O)c(O)c1)NC(=S)/C=C/c1ccc(O)c(O)c1 [Example 24, 3-(3,4-dihydroxy-phenyl)-(S)-2-[3-trans-(3,4-dihydroxy-phenyl)-thioacryloylamino]-propionic acid ethyl ester]	6.1 ± 0.6	–
25 to 50	14.9	CN(C(=O)/C=C/c1ccc(O)c(O)c1)[C@H](Cc1ccc(O)c(O)c1)C(=O)OC(C)(C)C [Example 34, 3-(3,4-dihydroxy-phenyl)-(R)-2-{[3-trans-(3,4-dihydroxy-phenyl)-acryloyl]-methyl-amino}-propionic acid tert-butyl ester]	6.3 ± 0.8	–

More lines, now with the values behind:

SMILES	IC50 [1] [µM]	IC50 [2] [µM]	Arthritis index [3, 4]	Arthritis index ([3]; Methotrexate 1 mg/kg/day every other day in PBS, day 15 after treatment)
CCOC(=O)[C@@H](Cc1ccc(O)c(O)c1)N(C)C(=O)/C=C/c1ccc(O)c(O)c1 [Example 31]	10 to 25	8.9	5.9 ± 2.1	–
COC(=O)[C@@H](Cc1ccc(O)c(O)c1)N(C)C(=O)/C=C/c1ccc(O)c(O)c1 [Example 29, 3-(3,4-dihydroxy-phenyl)-(R)-2-{[3-trans-(3,4-dihydroxy-phenyl)-acryloyl]-methyl-amino}-propionic acid methyl ester]	10 to 25	7.6	6.1 ± 2.1	–
COC(=O)[C@@H](Cc1ccc(O)c(O)c1)NC/C=C/c1ccc(O)c(O)c1 [Example 53, 3-(3,4-dihydroxy-phenyl)-2-[3-(3,4-dihydroxy-phenyl)-arylamino]-propionic acid methyl ester]	25 to 50	–	–	–
NC(=O)[C@@H](Cc1ccc(O)c(O)c1)NC(=O)/C=C/c1ccc(O)c(O)c1 [Example 7]	< 10	2.4	4.3 ± 1.5	–
CN(Cc1cnc2nc(N)nc(N)c2n1)c1ccc(C(=O)N[C@@H](CCC(=O)O)C(=O)O)cc1 [MTX, methotrexate, reference compound]	–	–	–	4.0 ± 1.1
CCCOC(=O)[C@@H](Cc1ccc(O)c(O)c1)N(C)C(=O)/C=C/c1ccc(O)c(O)c1 [Example 32]	10 to 25	9	5.3 ± 1.7	–
CN(C(=O)/C=C/c1ccc(O)c(O)c1)[C@H](Cc1ccc(O)c(O)c1)C(N)=O [Example 35, N-[l-carbamoyl-2-(3,4-dihydroxy-phenyl)-ethyl]-(R)-3-trans-(3,4-dihydroxy-phenyl)-N-methyl-acrylamide]	10 to 25	9.7	6.8 ± 1.9	–
CC(C)OC(=O)[C@@H](Cc1ccc(O)c(O)c1)N(C)C(=O)/C=C/c1ccc(O)c(O)c1 [Example 33, 3-(3,4-dihydroxy-phenyl)-(R)-2-{[3-trans-(3,4-dihydroxy-phenyl)-acryloyl]-methyl-amino}-propionic acid isopropyl ester]	10 to 25	7.8	5.7 ± 0.9	–
CN(C(=O)/C=C/c1ccc(O)c(O)c1)[C@H](Cc1ccc(O)c(O)c1)C(=O)O [Example 30]	25 to 50	15.8	6.5 ± 0.6	–
CN(C(=O)/C=C/c1ccc(O)c(O)c1)[C@@H](Cc1ccc(O)c(O)c1)C(=O)O [Example 37, 3-(3,4-dihydroxy-phenyl)-(S)-2-{[3-trans-(3,4-dihydroxy-phenyl)-acryloyl]-methyl-amino}-propionic acid]	25 to 50	17.3	6.7 ± 0.7	–
CC(C)OC(=O)[C@H](Cc1ccc(O)c(O)c1)N(C)C(=O)/C=C/c1ccc(O)c(O)c1 [Example 40, 3-(3,4-dihydroxy-phenyl)-(S)-2-{[3-trans-(3,4-dihydroxy-phenyl)-acryloyl]-methyl-amino}-propionic acid isopropyl ester]	10 to 25	8.7	5.9 ± 0.4	–
COC(=O)[C@@H](Cc1ccc(O)cc1)NC(=O)/C=C/c1ccc(O)c(O)c1 [Example 45]	10 to 25	7.8	5.7 ± 0.9	–
CC(C)OC(=O)[C@@H](Cc1ccc(O)c(O)c1)NC(=O)/C=C/c1ccc(O)c(O)c1 [Example 5, 3-(3,4-dihydroxy-phenyl)-(R)-2-[3-trans-(3,4-dihydroxy-phenyl)-acryloylamino]-propionic acid isopropyl ester]	< 10	6.5	4.9 ± 1.2	–
CCCOC(=O)[C@@H](Cc1ccc(O)c(O)c1)NC(=O)/C=C/c1ccc(O)c(O)c1 [Example 4, 3-(3,4-dihydroxy-phenyl)-(R)-2-[3-trans-(3,4-dihydroxy-phenyl)-acryloylamino]-propionic acid propyl ester]	< 10	7.8	5.6 ± 0.5	–
